Results: patent publication US9446026B2, “Ocular formulations for drug-delivery to the posterior segment of the eye” (PanOptica, Inc., priority 2013, dated 2016)
Where two headings read alike, the source gives them in different places.

Tests used:
[1] = Ocular tissue concentrations, 0.3% Compound-I Tris-based suspension twice daily 30 days; type: in vivo, Dutch-Belted rabbits; conditions: Dutch-Belted, rabbit, topical
[2] = Ocular toxicology: clinical ophthalmic and microscopic examinations; type: in vivo, Dutch-Belted rabbits
From the text: Retinal function was normal in all test article and vehicle treated groups during full-field electroretinograms performed in rabbits.

Cl.NC(=O)c1c(OCc2c(F)cc(Br)cc2F)nsc1NC(=O)NCCCCN1CCCC1 [Compound-I, 3-[(4-bromo-2,6-difluorophenyl)methoxy]-5-[[[[4-(1-pyrrolidinyl)butyl]amino]carbonyl]amino]-4-isothiazolecarboxamide hydrochloride]
concentration at 1 h ([1]; aqueous humor, 0.3% Tris-based suspensions with and without benzylalkonium chloride, twice daily, 1 hour after first daily dose on day 30, read-out: Mean ocular tissue concentration, aqueous humor): 1.27 to 1.45 nM | concentration at 1 h ([1]; central choroid, 0.3 % w/v, 0.3% Tris Suspension, Twice Daily 30 days, read-out: Central Choroid [Compound I]): 319 nM | concentration at 1 h ([1]; central choroid, 0.3% Tris-based suspensions with and without benzylalkonium chloride, twice daily, 1 hour after first daily dose on day 30, read-out: Mean ocular tissue concentration, central choroid): 303 to 319 nM | concentration at 1 h ([1]; central retina, 0.3% Tris-based suspensions with and without benzylalkonium chloride, twice daily, 1 hour after first daily dose on day 30, read-out: Mean ocular tissue concentration, central retina): 49.5 to 59.2 nM | concentration at 1 h ([1]; cornea, 0.3 % w/v, 0.3% Tris Suspension, Twice Daily 30 days, read-out: Cornea [Compound I]): 2690 nM | concentration at 1 h ([1]; cornea, 0.3% Tris-based suspensions with and without benzylalkonium chloride, twice daily, 1 hour after first daily dose on day 30, read-out: Mean ocular tissue concentration, cornea): 2690 to 3100 nM | concentration at 1 h ([1]; peripheral choroid, 0.3% Tris-based suspensions with and without benzylalkonium chloride, twice daily, 1 hour after first daily dose on day 30, read-out: Mean ocular tissue concentration, peripheral choroid): 781 to 1210 nM | concentration at 1 h ([1]; peripheral retina, 0.3% Tris-based suspensions with and without benzylalkonium chloride, twice daily, 1 hour after first daily dose on day 30, read-out: Mean ocular tissue concentration, peripheral retina): 81.9 to 86.8 nM | Microscopic evaluation of eyes, Tris-based suspension ([2]; 0.3% w/v twice daily for 30 days): considered normal | Findings attributed to test-article after 30 days of 0.6% cyclodextrin-based solution ([2]; Dutch-belted rabbits, topical ocular): no untoward findings | Tolerability of HP-β-CD cyclodextrin-based solutions, 30 days ([2]; rabbit, in vivo): well tolerated | Tolerability of Tris-based suspension formulations ([2]; rabbit, in vivo): well tolerated | Tolerability of cyclodextrin-based solutions, 24 days ([2]; rabbit, in vivo): well-tolerated | Retinal function, full-field electroretinograms ([2]; rabbits, all test article treated groups): normal
